# Experiments:
# [1] = Ability to trap the DPPH radical; conditions: 5 μg/mL
# Procedure: PRINCIPLE: This method is based on the reduction of an alcoholic solution of the stable form of the DPPH. radical in the presence of an antioxidant donor of hydrogen (AH), which leads to the formation of a non-radical form DPPH-H. This reduction causes a color change from violet to yellow which could be studied at 517 nm. The faster the color change occurs, the more the donor is considered as a strong antioxidant. PROTOCOL: 50 μL of different concentrations of each extract was added to 1.950 mL of freshly prepared methanolic DPPH. […] After incubation for 30 minutes in the dark and at room temperature, the absorbance was read at 517 nm. Methanol was used as control and ascorbic acid was used as standard. The ability to trap DPPH^· was expressed in percentage inhibition as calculated using the following equation: [formula] The inhibitory concentrations 50 (IC50) were later determined by extrapolating after drawing curves of percentage inhibition against concentration. All samples were analyzed in triplicates. I.4.3. Evaluation of DPPH^· Anti-Radical Activity of Rough Extract Fractions This activity was evaluated using the protocol of Sanchez-Moreno et al. (1998) as described earlier.
# [2] = test system: Aluminum chloride induced neurotoxicity in Wistar rats; assay: Aluminum chloride induced neurotoxicity in rats: MDA in brain; format: in vivo
# Procedure: (§1) [formula] I.3. Evaluation of Neuro-Protective Effects of the Hydro-Ethanolic Extract of B. toxisperma Against Aluminum Chloride Induced Neurotoxicity (Animal Model of Neurotoxicity)
# (§2) Twenty albinos Wistar rats weighing between 230-250 g were used for this experiment in which the treatment lasted 3 days. The experimentation was conducted in the animal house of the Laboratory of Nutrition and Nutritional Biochemistry of the department of Biochemistry (Faculty of Science, University of Yaounde I). Animals were fed with standard feed and drinking water ad libitum.
# (§3) Rats were divided into 5 groups of 4 rats each. A unique dose of 32.5 mg/kg BW of aluminum trichloride (AlCl3) was administered by intra peritoneal (i.p) route. […]
# PROTOCOL: 100 μL of homogenate and 400 μL of TBA reagent (annex 3b) were introduced into glass test tubes (blank and assay) which were tightly corked. […] The tubes were later opened for any gas to evaporate before centrifugation for 5 minutes at 1500 revs/minute and the absorbance of the liquid phase was read at 532 nm against a blank which contained 400 μL of reagent solution and 100 μL of NaCl 0.9% incubated in similar conditions. The concentration of MDA was determined using it molar extinction coefficient (ε=1.53×10^5 M^−1·cm^−1) and the following formula.
# [3] = test system: Aluminum chloride induced neurotoxicity in Wistar rats; assay: Aluminum chloride treated rats: plasma transaminases ASAT (GOT) and ALAT (GPT), hepatic toxicity; format: in vivo
# Procedure: as §1, §2
# (§4) Rats were divided into 5 groups of 4 rats each. A unique dose of 32.5 mg/kg BW of aluminum trichloride (AlCl3) was administered by intra peritoneal (i.p) route. 24 hours later, different doses of plant extract and vitamin E (reference) were administered by oral route, using a gastro-oesophagian probe once a day for 3 days.
# 24 hours after the last administration, animals were sacrificed under mild anesthesia in Ether vapor following a 12 hours fasting. The rats' bloods were collected in EDTA tubes. Cervical dislocations were performed immediately after blood collections, to remove the brains which were then rinsed in physiologic solution (0.9% NaCl) and weighed. Plasmas were extracted from the bloods collected and the brains were used to prepare 10% homogenates which served for biochemical analysis.
# The blood in EDTA tubes were allowed to stand at room temperature, then centrifuged for 10 minutes at 900 revs/minute, the resulting liquid phase (plasma) was then collected into Eppendorf tubes and stored at −20° C.
# 1.3.3.3.1. Evaluation of the Activities of the Oxaloglutamate (GOT) and Glutamo-Pyruvate (GPT) Transaminases (Reitman et Franckel, 1957) (Hepatic Toxicity) […]
# PROTOCOL: EVALUATION DE L′ACTIVITÉ DE L′ASAT (GOT): 100 μL of substrate solution (annex 3e) were put into tubes, pre-incubated at 37° C. for 5 minutes then 0.02 mL of plasma was added. […] Optical densities were read at 505 nm against a blank (made up of 100 μL of substrate solution and 0.02 mL of NaCl 0.9%) titrated under similar conditions. […]
# [4] = test system: lipid peroxidation induced in brain homogenates; assay: Inhibition of FeSO4-induced lipid peroxidation in brain homogenates; format: biochemical, Wistar rats
# Text: I.2.3 Inhibitory Activity of Lipid Peroxide in Nitro (Prasanth et al., 2000)
# PRINCIPLE: Lipid peroxidation refers to the oxidative degradation of lipids which provoke a continuous increase in the permeability of cell membranes, inducing an irreversible alteration of the functional properties of the cell which could eventually lead to cytolysis. It is a radical chain reaction in which a free radical cleaves a hydrogen atom from membrane lipids in order to form a conjugated diene radical, which is oxidized to a peroxyl that in turn generates other radical reactions leading to the formation of terminal products such as MDA. Iron can stimulate lipid peroxidation either by Fenton reaction or by acceleration of peroxidation through the decomposition of lipid hydroperoxides into peroxyl or alkoxyl radicals; themselves capable of cleaving a hydrogen and perpetrating lipid peroxidation. The MDA from this reaction reacts with TBA to give pink colored chromophores which absorb at 532 nm. […]
# The lipid peroxidation test was conducted as follows: 300 μL of plant extract at different concentrations and distilled water (control) were added to 500 μL of each homogenate. […] The absorbance was read at 532 nm. […] The IC50 were determined by extrapolating after drawing curves of lipid peroxidation percentage inhibition against the concentrations of plant extracts.
# [5] = test system: Aluminum chloride induced neurotoxicity in Wistar rats; assay: Aluminum chloride induced neurotoxicity in rats: catalase activity in brain; format: in vivo
# Procedure: as §1, §2, §3
# (§5) PROTOCOL: The assay tubes contained 100 μL of homogenate or plasma or ovalbumin (caliber) and 3 mL of Biuret's reagent (annex 3c). […] The optical densities were read at 540 nm against a blank which contained 3 mL of reagent solution and 100 μL of NaCl 0.9% incubated under similar conditions. The total protein concentration was determined from the following equation: […]
# PRINCIPLE: This method is based on the fact that the catalase present in hemolysates or homogenates reduces hydrogen peroxide (H2O2) to water (H2O) and oxygen (O2). […] Catalase activity is proportional to the optical density and is determined by use of a calibration curve. […]
# [6] = Ability to trap the hydroxyl radical (deoxyribose oxidation, Fenton reaction)
# Text: I.2.3 Ability to Trap the Hydroxyl (^·OH) Radical (Halliwell et al., 1987)
# PRINCIPLE: The […] capacity of plant extracts to trap the hydroxyl radical is based on the Fenton reaction, by measuring the production of ·OH radical and its effect on the oxidation and degradation bio-molecules such as deoxyribose in DNA. The system in this technique involves an auto-oxidation of the Fe^2+-EDTA complex in an aqueous medium to form the superoxide (O2^−·) anion which is rapidly dismutated into H2O2 at a pH of 7.4. The latter then reacts with Fe^2+ form ^·OH radicals in the presence of ascorbic acid which acts as catalyst (Fenton reaction). […]
# PROTOCOL: The reaction mixture contained the following reagents: 0.4 mL of phosphate buffer (50 mmol/L, pH=7.4), 0.1 mL of different concentrations of the extract, 0.1 mL of EDTA (1.04 mmol/L), 0.1 mL of FeCl3 (1 mmol/L) and 0.1 mL 2-deoxyribose (60 mmol/L). the reaction was initiated by adding 0.1 mL of ascorbic acid (2 mmol/L) and 0.1 mL of H2O2 (10 mmol/L). after incubating for 1 hour at 37° C., 1 mL of TBA (10 g/L) were added into the reaction medium followed by 1 mL of HCl (25% v/v). […] The absorbance was then read at 532 nm. The capacity of extracts to trap the hydroxyl radical was expressed as percentage inhibition of the oxidation of 2-deoxyribose based on the following formula: […]
# [7] = test system: Aluminum chloride induced neurotoxicity in Wistar rats; assay: Aluminum chloride treated rats: plasma creatinine, renal toxicity; format: in vivo
# Procedure: as §1, §2, §4
# 24 hours after the last administration, animals were sacrificed under mild anesthesia in Ether vapor following a 12 hours fasting. […]
# PROTOCOL: 1 mL of working solution (annex 3f) was placed into test tubes and 0.1 mL of plasma and caliber added respectively to assay and blank tubes. Tubes were agitated and their optical densities read 520 nm against a blank; within the 20 seconds that followed the stabilization of the mixture. […] The concentration of creatinine was determined from the following equation: […]
# [8] = test system: Aluminum chloride induced neurotoxicity in Wistar rats; assay: Aluminum chloride induced neurotoxicity in rats: thiol proteins in brain; format: in vivo; conditions: brain of rats; AlCl3 32.5 mg/kg i.p.; Vit E 100 mg/kg BW/day (VE100)
# Procedure: as §1, §2
# Rats were divided into 5 groups of 4 rats each. […]
# as §5
# PROTOCOL: 100 μL of homogenate and 900 μL of Ellman's reagent (annex 3d) were added into the assay tubes, homogenized and incubated at room temperature for 30 minutes before reading the optical densities at 412 nm against a blank which contained 900 μL the reagent solution and 100 μL of NaCl 0.9% incubated under similar conditions as the assay. […] Results were expressed as μmol/g of total proteins.
# [9] = HEEBT 150 and 300 mg/kg BW, vitamin E, p<0.05
# [10] = HEEBT 150 and 300 mg/kg BW, vitamin E
# [11] = plasma, AlCl3 32.5 mg/kg i.p., Vit E 100 mg/kg BW/day (VE100)
compound,measurement,setting,value
"O=C1O[C@H]([C@@H](O)CO)C(O)=C1O [Vitamin C, ascorbic acid]",% inhibition of DPPH radical,[1],54%
Vitamin E,effect on MDA level in rats compared with the positive control (PC),[2]; [9],significantly (p<0.05) reduced
same,MDA,"[2]; brain of rats, AlCl3 32.5 mg/kg i.p., Vit E 100 mg/kg BW/day oral, 3 days (VE100)",4.631 ± 0.652 µM
same,effect on activities of plasma transaminases after aluminum,[3]; [10],tend to normalize
same,ALAT,[3]; [11],60.135 ± 7.453 unité d'ALAT/mL
same,ASAT,[3]; [11],76.363 ± 1.868 unité d'ASAT/mL
same,IC50 for lipid peroxidation induced in the brain,[4],0.574 mg/mL
same,percentage inhibition of lipid peroxidation in brain homogenates,[4]; 1000 m/mL,60.427%
same,effect on catalase activity compared with the PC group,[5]; [9],significantly (p<0.05) restore
same,Catalase,"[5]; brain of rats, AlCl3 32.5 mg/kg i.p., Vit E 100 mg/kg BW/day (VE100)",0.030 ± 0.003 mM H2O2/min/mg of proteins
same,IC50 ·OH scavenging activity,[6],25.3 mg/mL
same,effect on plasma creatinine after aluminum,[7]; [10],tend to normalize
same,Créatinine,[7]; [11],2.297 ± 0.181 mg/dL
same,Thiols proteins,[8],0.299 ± 0.071 μg/mg of proteins

# — patent US11684646B2, “Methods and related compositions for reducing oxidative stress” (Gateway Health Alliances, Inc., priority 2019, dated 2023)
